In patent US11219213B2, “Fungicidal composition” (ADAMA HUIFENG (JIANGSU) LTD., priority 2016, dated 2022):
Like-named read-outs stand apart in the source and are kept apart here.

System: wheat leaf rust
Assay: Toxicity test of benzisothiazolinone combined with flutriafol (bioassay)
Assay type: in vivo
Conditions: for ATI (actual toxicity index): (EC50 of standard/EC50 of test agent)*100, flutriafol as standard; for EC50: median inhibition concentration from control effect, least square method

| SMILES | ATI (actual toxicity index) | EC50 [µg/mL] | EC50 (Puccinia triticina, read-out: EC50) [µg/mL] |
| --- | --- | --- | --- |
| O=c1[nH]sc2ccccc12 [Benzisothiazolinone, benzisothiazolinone] | 167.39 | 40.23 | – |
| OC(Cn1cncn1)(c1ccc(F)cc1)c1ccccc1F (stereo not shown) [Flutriafol, flutriafol] | 100.00 | – | 67.3 |
